Earlier results on three compounds are cited in US6369001B1, “Microemulsion coformulation of a graminicide and a water-soluble herbicide” (Monsanto Technology, LLC, priority 1999, dated 2002).

Structures are written as SMILES. “Also recorded” adds a separate entry of the source.

For this data set the following is noted: aqueous medium.
Consider `COC(=O)C(C)Oc1ccc(Oc2ccc(Cl)cc2Cl)cc1` (stereo not drawn) [diclofop-methyl], for which the “pH dependence of chemical stability / hydrolysis in water” value is recorded as “undergoes hydrolysis more readily in an alkaline medium”.
For `CCOC(=O)[C@@H](C)Oc1ccc(Oc2cnc3cc(Cl)ccc3n2)cc1` [quizalofop-P-ethyl], the “pH dependence of chemical stability / hydrolysis in water” value is listed as “hydrolysis occurring most rapidly when pH is in the alkaline range; also recorded: greater chemical stability in acid to neutral than in alkaline media”.
Turning to `CCO/N=C(\CC)C1=C(O)CC(c2c(C)cc(C)cc2C)CC1=O` (stereo not drawn) [tralkoxydim], the “pH dependence of chemical stability / hydrolysis in water” value is “especially unstable in an acid medium; also recorded: much more stable at pH 9 than at pH 5”.
